PubChem BioAssay (NCI)
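GI50 = concentration required for 50% inhibition of growth. TGI is the concentration that stops growth completely.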

Key:
Assay in all cases: NCI tumour cell line growth inhibition, 384-well format
TK-10 renal = test system: TK-10 renal
COLO 205 colon = test system: COLO 205 colon
PC-3 prostate = test system: PC-3 prostate
RXF 393 renal = test system: RXF 393 renal
M14 melanoma = test system: M14 melanoma
SK-MEL-28 melanoma = test system: SK-MEL-28 melanoma
HT29 colon = test system: HT29 colon
DU-145 prostate = test system: DU-145 prostate
UACC-257 melanoma = test system: UACC-257 melanoma
CCRF-CEM leukemia = test system: CCRF-CEM leukemia
786-0 renal = test system: 786-0 renal
SR leukemia = test system: SR leukemia
OVCAR-3 ovarian = test system: OVCAR-3 ovarian
NCI-H460 NSCLC = test system: NCI-H460 NSCLC
NCI-H23 lung = test system: NCI-H23 lung
SF-268 CNS = test system: SF-268 CNS
MDA-MB-231 breast = test system: MDA-MB-231 breast
T-47D breast = test system: T-47D breast
UACC-62 melanoma = test system: UACC-62 melanoma
HOP-62 NSCLC = test system: HOP-62 NSCLC
RPMI-8226 leukemia = test system: RPMI-8226 leukemia
CAKI-1 renal = test system: CAKI-1 renal
NCI-H322M lung = test system: NCI-H322M lung
OVCAR-4 ovarian = test system: OVCAR-4 ovarian
IGROV1 ovarian = test system: IGROV1 ovarian
OVCAR-5 ovarian = test system: OVCAR-5 ovarian
HCC-2998 colon = test system: HCC-2998 colon
HCT-15 colon = test system: HCT-15 colon
HS 578T breast = test system: HS 578T breast
MDA-MB-468 breast = test system: MDA-MB-468 breast
OVCAR-8 ovarian = test system: OVCAR-8 ovarian
SF-539 CNS = test system: SF-539 CNS
EKVX NSCLC = test system: EKVX NSCLC
SNB-19 CNS = test system: SNB-19 CNS
U251 glioblastoma = test system: U251 glioblastoma
UO-31 renal = test system: UO-31 renal
SN12C renal = test system: SN12C renal
MALME-3M melanoma = test system: MALME-3M melanoma
KM12 colon = test system: KM12 colon
MCF7 breast = test system: MCF7 breast
NCI-H226 lung = test system: NCI-H226 lung
HOP-92 NSCLC = test system: HOP-92 NSCLC
NCI/ADR-RES ovarian = test system: NCI/ADR-RES ovarian
SK-MEL-5 melanoma = test system: SK-MEL-5 melanoma
A549 NSCLC = test system: A549 NSCLC
ACHN renal = test system: ACHN renal
BT-549 breast = test system: BT-549 breast
HL-60(TB) leukemia = test system: HL-60(TB) leukemia
SW-620 colon = test system: SW-620 colon
SF-295 CNS = test system: SF-295 CNS
K-562 leukemia = test system: K-562 leukemia
SNB-75 CNS = test system: SNB-75 CNS
NCI-H522 lung = test system: NCI-H522 lung
LOX IMVI melanoma = test system: LOX IMVI melanoma
MDA-MB-435 melanoma = test system: MDA-MB-435 melanoma
A498 renal = test system: A498 renal
SK-OV-3 ovarian = test system: SK-OV-3 ovarian
MOLT-4 leukemia = test system: MOLT-4 leukemia
HCT-116 colon = test system: HCT-116 colon

Cc1cc(Nc2cc(CN3CCOCC3)c3nc(C)c(Cc4ccc(Cl)cc4F)n3n2)n[nH]1
GI50 (TK-10 renal): 1950 nM
TGI (TK-10 renal): 4.72 µM
GI50 (COLO 205 colon): 418 nM
TGI (COLO 205 colon): 1660 nM
GI50 (PC-3 prostate): 2200 nM
TGI (PC-3 prostate): 13.7 µM
GI50 (RXF 393 renal): 612 nM
TGI (RXF 393 renal): 2360 nM
GI50 (M14 melanoma): 1740 nM
TGI (M14 melanoma): 11.8 µM
GI50 (SK-MEL-28 melanoma): 2.39 µM
TGI (SK-MEL-28 melanoma): 15 µM
GI50 (HT29 colon): 1730 nM
TGI (HT29 colon): 16.1 µM
GI50 (DU-145 prostate): 1020 nM
TGI (DU-145 prostate): 3 µM
GI50 (UACC-257 melanoma): 5.45 µM
TGI (UACC-257 melanoma): 20.6 µM
GI50 (CCRF-CEM leukemia): 276 nM
TGI (CCRF-CEM leukemia): 604 nM
GI50 ([…]-0 renal): 688 nM
TGI (786-0 renal): 2320 nM
GI50 (SR leukemia): 166 nM
TGI (SR leukemia): 312 nM
GI50 (OVCAR-3 ovarian): 825 nM
TGI (OVCAR-3 ovarian): 2960 nM
GI50 (NCI-H460 NSCLC): 356 nM
TGI (NCI-H460 NSCLC): 1030 nM
GI50 (NCI-H23 lung): 578 nM
TGI (NCI-H23 lung): 2.57 µM
GI50 (SF-268 CNS): 439 nM
TGI (SF-268 CNS): 1620 nM
GI50 (MDA-MB-231 breast): 1070 nM
TGI (MDA-MB-231 breast): 3020 nM
GI50 (T-47D breast): 855 nM
TGI (T-47D breast): 14 µM
GI50 (UACC-62 melanoma): 1230 nM
TGI (UACC-62 melanoma): 2990 nM
GI50 (HOP-62 NSCLC): 1050 nM
TGI (HOP-62 NSCLC): 2950 nM
GI50 (RPMI-8226 leukemia): 205 nM
TGI (RPMI-8226 leukemia): 516 nM
GI50 (CAKI-1 renal): 1030 nM
TGI (CAKI-1 renal): 2.24 µM
GI50 (NCI-H322M lung): 1710 nM
TGI (NCI-H322M lung): 4.68 µM
GI50 (OVCAR-4 ovarian): 874 nM
TGI (OVCAR-4 ovarian): 5.88 µM
GI50 (IGROV1 ovarian): 1690 nM
TGI (IGROV1 ovarian): 3.36 µM
GI50 (OVCAR-5 ovarian): 1060 nM
TGI (OVCAR-5 ovarian): 3.58 µM
GI50 (HCC-2998 colon): 1130 nM
TGI (HCC-2998 colon): 2390 nM
GI50 (HCT-15 colon): 1110 nM
TGI (HCT-15 colon): 12 µM
GI50 (HS 578T breast): 586 nM
TGI (HS 578T breast): 1810 nM
GI50 (MDA-MB-468 breast): 271 nM
TGI (MDA-MB-468 breast): 535 nM
GI50 (OVCAR-8 ovarian): 1370 nM
TGI (OVCAR-8 ovarian): 3.65 µM
GI50 (SF-539 CNS): 1080 nM
TGI (SF-539 CNS): 2450 nM
GI50 (EKVX NSCLC): 1.58 µM
TGI (EKVX NSCLC): 8.09 µM
GI50 (SNB-19 CNS): 1.85 µM
TGI (SNB-19 CNS): 4.25 µM
GI50 (U251 glioblastoma): 1200 nM
TGI (U251 glioblastoma): 2750 nM
GI50 (UO-31 renal): 1440 nM
TGI (UO-31 renal): 2.88 µM
GI50 (SN12C renal): 730 nM
TGI (SN12C renal): 9.25 µM
GI50 (MALME-3M melanoma): 1490 nM
TGI (MALME-3M melanoma): 9.79 µM
GI50 (KM12 colon): 37.8 nM
TGI (KM12 colon): 1470 nM
GI50 (MCF7 breast): 894 nM
TGI (MCF7 breast): 6.57 µM
GI50 (NCI-H226 lung): 324 nM
TGI (NCI-H226 lung): 2.08 µM
GI50 (HOP-92 NSCLC): 554 nM
TGI (HOP-92 NSCLC): 2560 nM
GI50 (NCI/ADR-RES ovarian): 2520 nM
TGI (NCI/ADR-RES ovarian): 7.88 µM
GI50 (SK-MEL-5 melanoma): 693 nM
TGI (SK-MEL-5 melanoma): 5.82 µM
GI50 (A549 NSCLC): 0.772 µM
TGI (A549 NSCLC): 3.35 µM
GI50 (ACHN renal): 1270 nM
TGI (ACHN renal): 7.95 µM
GI50 (BT-549 breast): 842 nM
TGI (BT-549 breast): 2780 nM
GI50 (HL-60(TB) leukemia): 302 nM
TGI (HL-60(TB) leukemia): 670 nM
GI50 (SW-620 colon): 671 nM
TGI (SW-620 colon): 8.26 µM
GI50 (SF-295 CNS): 1210 nM
TGI (SF-295 CNS): 2.7 µM
GI50 (K-562 leukemia): 380 nM
TGI (K-562 leukemia): 1360 nM
GI50 (SNB-75 CNS): 812 nM
TGI (SNB-75 CNS): 2.35 µM
GI50 (NCI-H522 lung): 366 nM
TGI (NCI-H522 lung): 1110 nM
GI50 (LOX IMVI melanoma): 868 nM
TGI (LOX IMVI melanoma): 2130 nM
GI50 (MDA-MB-435 melanoma): 563 nM
TGI (MDA-MB-435 melanoma): 15.1 µM
GI50 (A498 renal): 0.724 µM
TGI (A498 renal): 3.29 µM
GI50 (SK-OV-3 ovarian): 1230 nM
TGI (SK-OV-3 ovarian): 3.38 µM
GI50 (MOLT-4 leukemia): 162 nM
TGI (MOLT-4 leukemia): 336 nM

S=c1nc[nH]c2nc[nH]c12
GI50 (TK-10 renal): 437 nM
TGI (TK-10 renal): 2.19 µM
GI50 (PC-3 prostate): 2400 nM
GI50 (RXF 393 renal): 241 nM
TGI (RXF 393 renal): 1160 nM
GI50 (M14 melanoma): 306 nM
GI50 (SK-MEL-28 melanoma): 15.4 µM
TGI (SK-MEL-28 melanoma): 99.6 µM
GI50 (HT29 colon): 1890 nM
GI50 (UACC-257 melanoma): 2.04 µM
GI50 (HCT-116 colon): 1800 nM
GI50 (CCRF-CEM leukemia): 1420 nM
TGI (CCRF-CEM leukemia): 3000 nM
GI50 ([…]-0 renal): 468 nM
TGI (786-0 renal): 2200 nM
GI50 (OVCAR-3 ovarian): 168 nM
TGI (OVCAR-3 ovarian): 389 nM
GI50 (NCI-H23 lung): 576 nM
TGI (NCI-H23 lung): 5.86 µM
GI50 (SF-268 CNS): 1110 nM
TGI (SF-268 CNS): 2800 nM
GI50 (MDA-MB-231 breast): 395 nM
TGI (MDA-MB-231 breast): 1860 nM
GI50 (T-47D breast): 423 nM
GI50 (UACC-62 melanoma): 876 nM
GI50 (HOP-62 NSCLC): 219 nM
TGI (HOP-62 NSCLC): 592 nM
GI50 (RPMI-8226 leukemia): 289 nM
TGI (RPMI-8226 leukemia): 1280 nM
GI50 (CAKI-1 renal): 1570 nM
TGI (CAKI-1 renal): 5.45 µM
GI50 (NCI-H322M lung): 1060 nM
TGI (NCI-H322M lung): 7.28 µM
GI50 (IGROV1 ovarian): 3630 nM
GI50 (OVCAR-5 ovarian): 1250 nM
TGI (OVCAR-5 ovarian): 2.8 µM
GI50 (HCT-15 colon): 4730 nM
GI50 (HS 578T breast): 473 nM
TGI (HS 578T breast): 3380 nM
GI50 (MDA-MB-468 breast): 150 nM
TGI (MDA-MB-468 breast): 416 nM
GI50 (OVCAR-8 ovarian): 1480 nM
TGI (OVCAR-8 ovarian): 5.93 µM
GI50 (SF-539 CNS): 481 nM
TGI (SF-539 CNS): 2910 nM
GI50 (EKVX NSCLC): 53.9 µM
GI50 (SNB-19 CNS): 11.3 µM
TGI (SNB-19 CNS): 37 µM
GI50 (U251 glioblastoma): 3300 nM
GI50 (UO-31 renal): 1860 nM
TGI (UO-31 renal): 5.23 µM
GI50 (SN12C renal): 2430 nM
TGI (SN12C renal): 19.4 µM
GI50 (MALME-3M melanoma): 494 nM
TGI (MALME-3M melanoma): 3.14 µM
GI50 (KM12 colon): 1330 nM
GI50 (MCF7 breast): 272 nM
TGI (MCF7 breast): 10.2 µM
GI50 (NCI-H226 lung): 294 nM
TGI (NCI-H226 lung): 11.9 µM
GI50 (HOP-92 NSCLC): 301 nM
GI50 (NCI/ADR-RES ovarian): 2060 nM
TGI (NCI/ADR-RES ovarian): 8.77 µM
GI50 (A549 NSCLC): 5.6 µM
TGI (A549 NSCLC): 57.1 µM
GI50 (ACHN renal): 1830 nM
TGI (ACHN renal): 6.91 µM
GI50 (BT-549 breast): 482 nM
TGI (BT-549 breast): 2300 nM
GI50 (HL-60(TB) leukemia): 357 nM
TGI (HL-60(TB) leukemia): 1840 nM
GI50 (SW-620 colon): 4150 nM
GI50 (SF-295 CNS): 1130 nM
TGI (SF-295 CNS): 3.71 µM
GI50 (K-562 leukemia): 334 nM
TGI (K-562 leukemia): 950 nM
GI50 (SNB-75 CNS): 217 nM
TGI (SNB-75 CNS): 5.13 µM
GI50 (NCI-H522 lung): 299 nM
TGI (NCI-H522 lung): 1770 nM
GI50 (LOX IMVI melanoma): 206 nM
TGI (LOX IMVI melanoma): 481 nM
GI50 (MDA-MB-435 melanoma): 729 nM
GI50 (A498 renal): 10.6 µM
TGI (A498 renal): 96.7 µM
GI50 (SK-OV-3 ovarian): 569 nM
GI50 (MOLT-4 leukemia): 151 nM
TGI (MOLT-4 leukemia): 318 nM
